Values after ≈ are worked out from the molar mass of the structure shown.
Assays:
Human plasma kallikrein = Human plasma kallikrein (Homo sapiens (Human), UniProt P03952); test: Determination of the IC50 for plasma kallikrein (fluorogenic substrate H-DPro-Phe-Arg-AFC); assay type: biochemical; settings: class symbols A-D, read-out: IC50 (human PKal)
How it was run: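 IC50 values come from initial rates, monitored as the change in absorbance at 410 nm, of residual enzyme activity. Test compound was present at various concentrations with the fluorogenic substrate H-DPro-Phe-Arg-AFC, and the reaction was run at 25° C.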

Human FXIa = Human FXIa (Homo sapiens (Human), UniProt P03951); test: Determination of the % inhibition for FXIa (fluorogenic substrate Z-Gly-Pro-Arg-AFC; 40 μM or IC50); assay type: biochemical
Human FXIa, sequence (P03951 388-625): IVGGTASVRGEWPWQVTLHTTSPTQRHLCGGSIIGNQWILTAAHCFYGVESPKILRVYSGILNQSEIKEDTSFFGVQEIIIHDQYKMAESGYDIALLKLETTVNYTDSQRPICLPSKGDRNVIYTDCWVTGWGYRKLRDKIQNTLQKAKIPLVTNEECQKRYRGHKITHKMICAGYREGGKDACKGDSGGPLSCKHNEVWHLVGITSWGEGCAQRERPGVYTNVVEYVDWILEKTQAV
Human FXIa, sequence (P03951 19-387 partner): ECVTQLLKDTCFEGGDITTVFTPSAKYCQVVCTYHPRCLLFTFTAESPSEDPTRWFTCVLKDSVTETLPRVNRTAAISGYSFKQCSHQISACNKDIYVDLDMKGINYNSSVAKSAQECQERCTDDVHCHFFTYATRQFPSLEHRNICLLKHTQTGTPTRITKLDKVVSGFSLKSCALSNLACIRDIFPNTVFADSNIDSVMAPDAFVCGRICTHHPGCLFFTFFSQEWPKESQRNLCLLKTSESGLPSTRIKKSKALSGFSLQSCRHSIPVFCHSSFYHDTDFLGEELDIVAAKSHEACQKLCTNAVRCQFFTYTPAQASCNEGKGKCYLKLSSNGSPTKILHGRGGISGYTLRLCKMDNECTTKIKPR
How it was run: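 Inhibition measured from initial reaction rate, followed as absorbance change at 410 nm, with substrate Z-Gly-Pro-Arg-AFC at 25 °C. Compound tested at a single 40 μM dose for percent inhibition, or across several concentrations to derive IC50 against human FXIa.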

[1] = Solubility after 24 hrs in Fasted State Simulated Intestinal Fluid (FaSSIF); assay type: physicochemical; settings: Fasted State Simulated Intestinal Fluid (FaSSIF), thermodynamic from solid, 24 hrs at 37° C., nominal concentration 1 mg/mL (as free base)
How it was run: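 Compound at nominal 1 mg/mL (as free base) in freshly prepared FaSSIF, shaken 24 h at 37 °C, ~500 rpm. After centrifugation at 15,000 g for 10 min at 37 °C, dissolved concentration measured by LCMS.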

Human KLK1 = Human KLK1 (Homo sapiens (Human), UniProt P06870); test: Determination of the IC50 for KLK1 (fluorogenic substrate H-DVal-Leu-Arg-AFC); assay type: biochemical
Human KLK1, sequence (P06870 25-262): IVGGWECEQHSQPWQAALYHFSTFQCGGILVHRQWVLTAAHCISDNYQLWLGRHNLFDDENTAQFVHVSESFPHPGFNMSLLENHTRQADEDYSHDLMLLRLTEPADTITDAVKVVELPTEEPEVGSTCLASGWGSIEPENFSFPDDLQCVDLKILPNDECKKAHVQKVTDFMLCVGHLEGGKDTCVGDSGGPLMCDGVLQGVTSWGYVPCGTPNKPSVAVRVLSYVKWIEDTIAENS
How it was run: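 Inhibition read as initial rate via optical absorbance change at 410 nm, giving IC50. Reactions combined human KLK1, the substrate H-DVal-Leu-Arg-AFC and varied compound concentrations at 25° C.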

[2] = Pharmacokinetics following a single oral dose in male Sprague-Dawley rats; assay type: in vivo; settings: rat, nominal 5 mg/kg in 10% DMSO/10% cremophor/80% SWFI, plasma
Procedure: Pharmacokinetic studies of the compounds in Table 14 were performed to assess the pharmacokinetics following a single oral dose in male Sprague-Dawley rats. Two rats were given a single po dose of 5 mL/kg of a nominal 1 mg/mL (5 mg/kg) composition of test compound in 10% DMSO/10% cremophor/80% SWFI vehicle. Following dosing, blood samples were collected over a period of […]. Sample times were 5, 15 and 30 minutes then 1, 2, 4, 6, 8 and 12 hours. Following collection, blood samples were centrifuged and the plasma fraction analysed for concentration of test compound by LCMS.

Human plasma kallikrein, sequence (P03952 391-638): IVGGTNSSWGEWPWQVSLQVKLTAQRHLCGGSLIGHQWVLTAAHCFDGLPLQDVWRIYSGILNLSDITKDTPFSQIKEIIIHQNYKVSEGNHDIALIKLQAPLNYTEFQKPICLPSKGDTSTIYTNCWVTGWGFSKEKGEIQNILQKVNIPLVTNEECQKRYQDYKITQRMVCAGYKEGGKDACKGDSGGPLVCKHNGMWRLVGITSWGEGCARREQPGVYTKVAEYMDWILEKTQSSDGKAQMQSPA
Human plasma kallikrein, sequence (P03952 20-390 partner): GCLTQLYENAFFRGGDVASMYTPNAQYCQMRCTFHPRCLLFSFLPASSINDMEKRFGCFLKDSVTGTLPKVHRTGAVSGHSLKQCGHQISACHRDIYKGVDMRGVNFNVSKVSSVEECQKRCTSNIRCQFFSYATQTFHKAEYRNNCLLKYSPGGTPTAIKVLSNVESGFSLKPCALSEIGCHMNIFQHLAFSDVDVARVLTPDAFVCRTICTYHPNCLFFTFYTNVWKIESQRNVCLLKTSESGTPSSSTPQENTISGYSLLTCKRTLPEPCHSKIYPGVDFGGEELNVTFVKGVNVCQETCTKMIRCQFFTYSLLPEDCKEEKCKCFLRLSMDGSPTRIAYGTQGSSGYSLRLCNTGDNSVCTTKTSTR

Compound `COCc1nn(Cc2ccc3c(c2)CN(C)CC3)cc1C(=O)NCc1c(-n2cc(C(F)F)nn2)ccc(OC)c1F` [Example 1, N-({6-[4-(difluoromethyl)-1,2,3-triazol-1-yl]-2-fluoro-3-methoxyphenyl}methyl)-3-(methoxymethyl)-1-[(2-methyl-3,4-dihydro-1H-isoquinolin-7-yl)methyl]pyrazole-4-carboxamide] has an IC50 (Human plasma kallikrein) of under 0.01 µM, an IC50 (Human FXIa) of over 40 µM and a solubility at 24 h [1] of 930 µg/mL (≈ 1630 µM). The IC50 (Human KLK1) was over 40 µM and the Cmax [2] was 88 ng/mL.
Work on `COCc1nn(Cc2ccc3c(c2)CN(C)CC3)cc1C(=O)NCc1c(-n2cc(C)nn2)ccc(OC)c1F` [Example 2, N-{[2-Fluoro-3-methoxy-6-(4-methyl-1,2,3-triazol-1-yl)phenyl]methyl}-3-(methoxymethyl)-1-[(2-methyl-3,4-dihydro-1H-isoquinolin-7-yl)methyl]pyrazole-4-carboxamide] yielded an IC50 (Human plasma kallikrein) of under 0.01 µM, an IC50 (Human FXIa) of over 40 µM and a solubility at 24 h [1] of 710 µg/mL (≈ 1330 µM). The IC50 (Human KLK1) was over 40 µM and the Cmax [2] was 134 ng/mL.
Compound `COCc1nn(Cc2ccc3c(c2)CN(C)CC3)cc1C(=O)NCc1c(-n2cnc(C(F)(F)F)n2)ccc(OC)c1F` [Example 13, N-({2-fluoro-3-methoxy-6-[3-(trifluoromethyl)-1,2,4-triazol-1-yl]phenyl}methyl)-3-(methoxymethyl)-1-[(2-methyl-3,4-dihydro-1H-isoquinolin-7-yl)methyl]pyrazole-4-carboxamide] has an IC50 (Human plasma kallikrein) of under 0.01 µM, an IC50 (Human FXIa) of over 40 µM and a solubility at 24 h [1] of 860 µg/mL (≈ 1460 µM). For the same compound, the IC50 (Human KLK1) was over 40 µM and the Cmax [2] was 88 ng/mL.
Work on `COCc1nn(Cc2ccc3c(c2)CN(C)CC3)cc1C(=O)NCc1c(-n2cnc(C(F)F)n2)ccc(OC)c1F` [Example 15, N-({6-[3-(difluoromethyl)-1,2,4-triazol-1-yl]-2-fluoro-3-methoxyphenyl}methyl)-3-(methoxymethyl)-1-[(2-methyl-3,4-dihydro-1H-isoquinolin-7-yl)methyl]pyrazole-4-carboxamide] yielded an IC50 (Human plasma kallikrein) of under 0.01 µM, an IC50 (Human FXIa) of over 40 µM and a solubility at 24 h [1] of over 1000 µg/mL. It also gave an IC50 (Human KLK1) of over 40 µM and a Cmax [2] of 78 ng/mL.
`COCc1nn(Cc2ccc3c(c2)CN(C(C)C)CC3)cc1C(=O)NCc1c(-n2cnc(C(F)F)n2)ccc(OC)c1F` [Example 23, N-({6-[3-(difluoromethyl)-1,2,4-triazol-1-yl]-2-fluoro-3-methoxyphenyl}methyl)-1-[(2-isopropyl-3,4-dihydro-1H-isoquinolin-7-yl)methyl]-3-(methoxymethyl)pyrazole-4-carboxamide] showed an IC50 (Human plasma kallikrein) of under 0.01 µM, an IC50 (Human FXIa) of over 40 µM and a solubility at 24 h [1] of 870 µg/mL (≈ 1460 µM). The IC50 (Human KLK1) was over 40 µM and the Cmax [2] was 20 ng/mL.
`COCc1nn(Cc2ccc3c(c2)CN(C(C)C)CC3)cc1C(=O)NCc1c(-n2ccc(C#N)n2)ccc(OC)c1F` [Example 24, N-{[6-(3-cyanopyrazol-1-yl)-2-fluoro-3-methoxyphenyl]methyl}-1-[(2-isopropyl-3,4-dihydro-1H-isoquinolin-7-yl)methyl]-3-(methoxymethyl)pyrazole-4-carboxamide] gave an IC50 (Human plasma kallikrein) of under 0.01 µM, an IC50 (Human FXIa) of 23.8 µM and a solubility at 24 h [1] of 730 µg/mL (≈ 1280 µM). The IC50 (Human KLK1) was over 40 µM and the Cmax [2] was 24 ng/mL.
For `COCc1nn(Cc2ccc3c(c2)CCN(C(C)C)C3)cc1C(=O)NCc1c(-n2cc(C)nn2)ccc(OC)c1F` [Example 37, N-{[2-fluoro-3-methoxy-6-(4-methyl-1,2,3-triazol-1-yl)phenyl]methyl}-1-[(2-isopropyl-3,4-dihydro-1H-isoquinolin-6-yl)methyl]-3-(methoxymethyl)pyrazole-4-carboxamide], the IC50 (Human plasma kallikrein) was under 0.01 µM, the IC50 (Human FXIa) was over 40 µM and the solubility at 24 h [1] was over 1000 µg/mL. For the same compound, the IC50 (Human KLK1) was over 40 µM and the Cmax [2] was 38 ng/mL.
For `CCN1CCc2cc(Cn3cc(C(=O)NCc4c(-n5cc(C)nn5)ccc(OC)c4F)c(COC)n3)ccc2C1` [Example 38, 1-[(2-ethyl-3,4-dihydro-1H-isoquinolin-6-yl)methyl]-N-{[2-fluoro-3-methoxy-6-(4-methyl-1,2,3-triazol-1-yl)phenyl]methyl}-3-(methoxymethyl)pyrazole-4-carboxamide], the IC50 (Human plasma kallikrein) was under 0.01 µM, the IC50 (Human FXIa) was over 40 µM and the solubility at 24 h [1] was 740 µg/mL (≈ 1350 µM). It also gave an IC50 (Human KLK1) of over 40 µM and a Cmax [2] of 51 ng/mL.
With `COCc1nn(Cc2ccc3c(c2)CCN(C(C)C)C3)cc1C(=O)NCc1c(-n2ccc(C#N)n2)ccc(OC)c1F` [Example 46, N-{[6-(3-cyanopyrazol-1-yl)-2-fluoro-3-methoxyphenyl]methyl}-1-[(2-isopropyl-3,4-dihydro-1H-isoquinolin-6-yl)methyl]-3-(methoxymethyl)pyrazole-4-carboxamide] the IC50 (Human plasma kallikrein) was under 0.01 µM, the IC50 (Human FXIa) was over 40 µM and the solubility at 24 h [1] was over 1000 µg/mL. It also gave an IC50 (Human KLK1) of over 40 µM and a Cmax [2] of 34 ng/mL.
`COCc1nn(Cc2ccc3c(c2)CN(C)C3)cc1C(=O)NCc1c(-n2cc(C)nn2)ccc(OC)c1F` [Example 54, N-{[2-fluoro-3-methoxy-6-(4-methyl-1,2,3-triazol-1-yl)phenyl]methyl}-3-(methoxymethyl)-1-[(2-methyl-1,3-dihydroisoindol-5-yl)methyl]pyrazole-4-carboxamide] gave an IC50 (Human plasma kallikrein) of under 0.01 µM, an IC50 (Human FXIa) of over 4 µM and a solubility at 24 h [1] of 820 µg/mL (≈ 1580 µM). It also gave an IC50 (Human KLK1) of over 4 µM and a Cmax [2] of 154 ng/mL.
`COCc1nn(Cc2ccc3c(c2)CN(C)CC32CC2)cc1C(=O)NCc1c(-n2cc(C)nn2)ccc(OC)c1F` [Example 126, N-{[2-fluoro-3-methoxy-6-(4-methyl-1,2,3-triazol-1-yl)phenyl]methyl}-3-(methoxymethyl)-1-{2′-methyl-1′,3′-dihydrospiro[cyclopropane-1,4′-isoquinoline]-7′-ylmethyl}pyrazole-4-carboxamide] showed an IC50 (Human plasma kallikrein) of under 0.01 µM, an IC50 (Human FXIa) of over 40 µM and a solubility at 24 h [1] of 880 µg/mL (≈ 1570 µM). For the same compound, the IC50 (Human KLK1) was over 40 µM and the Cmax [2] was 63 ng/mL.
Compound `COCc1nn(Cc2ccc3c(c2)CNCC32CC2)cc1C(=O)NCc1c(-n2cc(C)nn2)ccc(OC)c1F` [Example 127, 1-{2′,3′-dihydro-1′H-spiro[cyclopropane-1,4′-isoquinoline]-7′-ylmethyl}-N-{[2-fluoro-3-methoxy-6-(4-methyl-1,2,3-triazol-1-yl)phenyl]methyl}-3-(methoxymethyl)pyrazole-4-carboxamide] has an IC50 (Human plasma kallikrein) of under 0.01 µM, an IC50 (Human FXIa) of over 40 µM and a solubility at 24 h [1] of 810 µg/mL (≈ 1480 µM). For the same compound, the IC50 (Human KLK1) was over 40 µM and the Cmax [2] was 9 ng/mL.
